The values that follow come from article PMC8706783 (Pharmaceutics, 2021).

The target in data set [1] is T1, UGT1A1 (Homo sapiens, UniProt P22309).
T1 construct: from tissue
T1 sequence (P22309 26-533): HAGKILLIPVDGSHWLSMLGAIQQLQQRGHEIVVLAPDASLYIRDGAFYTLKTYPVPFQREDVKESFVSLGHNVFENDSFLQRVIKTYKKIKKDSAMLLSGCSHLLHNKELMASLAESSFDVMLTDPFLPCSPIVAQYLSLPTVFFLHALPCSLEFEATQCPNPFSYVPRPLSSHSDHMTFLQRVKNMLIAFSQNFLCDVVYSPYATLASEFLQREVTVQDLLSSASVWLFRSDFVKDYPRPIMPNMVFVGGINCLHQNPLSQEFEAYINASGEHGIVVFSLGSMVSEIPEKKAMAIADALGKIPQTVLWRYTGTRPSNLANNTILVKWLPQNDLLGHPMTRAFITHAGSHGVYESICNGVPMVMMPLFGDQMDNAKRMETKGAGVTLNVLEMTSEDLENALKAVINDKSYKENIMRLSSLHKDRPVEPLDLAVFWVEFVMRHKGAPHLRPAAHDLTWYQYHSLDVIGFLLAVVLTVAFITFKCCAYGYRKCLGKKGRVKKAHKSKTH
The experiment in a line: Enzyme inhibition assay, UGT1A1. Format: in vitro ADME. The conditions noted are these: for IC50: HLM, UGT1A1 SN38 glucuronidation.

The target of data set [2] is T2, UGT1A6 (Homo sapiens, UniProt P19224).
T2 sequence (P19224 27-532): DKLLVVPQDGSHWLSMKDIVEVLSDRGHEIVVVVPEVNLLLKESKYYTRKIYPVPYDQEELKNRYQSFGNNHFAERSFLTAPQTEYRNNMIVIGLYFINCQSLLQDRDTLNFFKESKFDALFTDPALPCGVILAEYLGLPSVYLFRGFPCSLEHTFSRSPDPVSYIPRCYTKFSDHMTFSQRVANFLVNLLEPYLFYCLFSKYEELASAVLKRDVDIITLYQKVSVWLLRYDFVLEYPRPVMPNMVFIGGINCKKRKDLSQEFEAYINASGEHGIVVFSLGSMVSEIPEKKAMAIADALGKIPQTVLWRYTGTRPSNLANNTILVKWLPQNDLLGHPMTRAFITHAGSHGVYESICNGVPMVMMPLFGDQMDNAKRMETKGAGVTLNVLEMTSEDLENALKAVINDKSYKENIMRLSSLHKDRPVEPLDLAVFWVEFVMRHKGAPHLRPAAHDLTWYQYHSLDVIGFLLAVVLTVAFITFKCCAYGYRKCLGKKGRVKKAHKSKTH
The experiment in a line: Enzyme inhibition assay, UGT1A6. Format: in vitro ADME. The conditions noted are these: Recombinant UGT1A6; 4-methylumbelliferone O-glucuronidation.

For data set [3] the following is noted: women, cited from earlier work; for Cmax: plasma, ref IPM 028.
Data set [4] addresses T3, UGT1A4 (Homo sapiens, UniProt P22310).
T3 sequence (P22310 29-534): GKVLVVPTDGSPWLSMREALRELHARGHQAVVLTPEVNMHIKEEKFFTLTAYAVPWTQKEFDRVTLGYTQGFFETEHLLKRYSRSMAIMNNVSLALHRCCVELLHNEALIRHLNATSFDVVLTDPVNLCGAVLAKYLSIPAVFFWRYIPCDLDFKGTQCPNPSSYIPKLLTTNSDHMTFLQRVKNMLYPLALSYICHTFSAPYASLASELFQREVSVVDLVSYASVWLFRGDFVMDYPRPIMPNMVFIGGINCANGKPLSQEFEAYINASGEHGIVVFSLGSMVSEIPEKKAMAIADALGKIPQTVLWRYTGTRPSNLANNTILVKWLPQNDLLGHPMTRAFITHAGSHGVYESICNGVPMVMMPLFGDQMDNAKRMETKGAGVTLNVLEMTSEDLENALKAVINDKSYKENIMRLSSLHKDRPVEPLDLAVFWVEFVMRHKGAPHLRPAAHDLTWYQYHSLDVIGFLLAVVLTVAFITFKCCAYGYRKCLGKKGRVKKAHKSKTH
The experiment in a line: Enzyme inhibition assay, UGT1A4.

The target of data set [5] is T4, UGT1A8 (Homo sapiens, UniProt Q9HAW9).
T4 sequence (Q9HAW9 26-530): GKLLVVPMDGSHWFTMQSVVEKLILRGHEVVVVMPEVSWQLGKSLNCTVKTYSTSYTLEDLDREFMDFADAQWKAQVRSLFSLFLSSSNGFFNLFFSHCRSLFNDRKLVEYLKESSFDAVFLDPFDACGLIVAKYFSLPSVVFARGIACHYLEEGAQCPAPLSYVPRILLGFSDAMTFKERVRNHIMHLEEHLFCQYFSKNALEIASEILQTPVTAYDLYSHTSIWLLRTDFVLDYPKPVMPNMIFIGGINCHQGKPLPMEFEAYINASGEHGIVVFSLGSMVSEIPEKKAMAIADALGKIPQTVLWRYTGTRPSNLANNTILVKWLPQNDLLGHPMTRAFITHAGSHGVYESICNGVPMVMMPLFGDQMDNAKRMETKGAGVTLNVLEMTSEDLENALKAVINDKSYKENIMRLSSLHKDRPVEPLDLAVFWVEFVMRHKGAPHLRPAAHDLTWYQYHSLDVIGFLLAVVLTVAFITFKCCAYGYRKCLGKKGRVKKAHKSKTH
As to the kind of experiment: Enzyme inhibition assay, UGT1A8.

In data set [6] the target is T5, CYP2B6 (Homo sapiens, UniProt P20813).
T5 construct: tissue Xenotech LLC; host or cells: human liver microsomes, mixed-gender 50 donor pool
T5 sequence (P20813 whole entry): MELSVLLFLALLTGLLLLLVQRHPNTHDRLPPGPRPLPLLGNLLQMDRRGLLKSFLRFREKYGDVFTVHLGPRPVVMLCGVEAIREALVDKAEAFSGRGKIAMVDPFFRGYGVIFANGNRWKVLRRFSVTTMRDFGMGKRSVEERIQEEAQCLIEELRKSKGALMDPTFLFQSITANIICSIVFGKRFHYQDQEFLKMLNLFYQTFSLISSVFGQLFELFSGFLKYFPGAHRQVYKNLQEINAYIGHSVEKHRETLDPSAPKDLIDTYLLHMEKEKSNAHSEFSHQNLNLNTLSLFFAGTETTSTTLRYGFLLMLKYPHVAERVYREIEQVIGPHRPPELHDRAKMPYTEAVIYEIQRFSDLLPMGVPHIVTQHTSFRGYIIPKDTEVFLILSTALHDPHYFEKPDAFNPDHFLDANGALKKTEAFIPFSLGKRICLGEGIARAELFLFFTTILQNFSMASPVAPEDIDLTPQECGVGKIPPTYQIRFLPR
The experiment in a line: Enzyme inhibition assay, CYP2B6. The format is in vitro ADME.

In data set [7] the test system is CYP1A2 mRNA. On the set-up: method as in PMID 23965226. The conditions noted are these: 10 μM DPV, colorectal tissue from three human donors; cited from earlier work.
Data set [8] addresses T6, UGT2B7 (Homo sapiens, UniProt P16662).
T6 sequence (P16662 24-529): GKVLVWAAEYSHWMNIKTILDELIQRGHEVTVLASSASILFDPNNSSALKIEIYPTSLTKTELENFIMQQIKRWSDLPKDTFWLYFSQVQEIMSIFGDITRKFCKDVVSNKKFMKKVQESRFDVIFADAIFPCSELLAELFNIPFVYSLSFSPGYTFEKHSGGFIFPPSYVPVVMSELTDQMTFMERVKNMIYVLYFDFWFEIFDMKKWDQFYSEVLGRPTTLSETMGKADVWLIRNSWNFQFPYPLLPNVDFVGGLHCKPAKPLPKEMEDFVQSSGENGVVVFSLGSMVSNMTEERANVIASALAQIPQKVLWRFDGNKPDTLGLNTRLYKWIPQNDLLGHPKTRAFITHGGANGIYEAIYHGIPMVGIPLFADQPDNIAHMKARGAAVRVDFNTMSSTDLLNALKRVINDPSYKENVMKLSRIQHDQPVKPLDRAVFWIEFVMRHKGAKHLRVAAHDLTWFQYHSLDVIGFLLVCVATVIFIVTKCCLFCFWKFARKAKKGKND
The experiment in a line: Enzyme inhibition assay, UGT2B7. On the set-up: from tissue. Format: in vitro ADME. As to conditions: HLM; UGT2B7 zidovudine glucuronidation.

Where two headings read alike, the source gives them in different places.

Take `Clc1ccc(COC(Cn2ccnc2)c2ccc(Cl)cc2Cl)c(Cl)c1` (stereo not shown) [MIC, miconazole]: the IC50 (in general, the point on the concentration scale where inhibition reaches its midpoint) was “Apparent activation with MIC” in data set [1]; 17.1 µM in data set [2]; 26.5 µM in data set [4]; “Apparent activation with MIC” in data set [5] (Recombinant UGT1A8, 4-methylumbelliferone O-glucuronidation). In addition, the Emax at 15 min, 30 µM in data set [1] (human, human liver microsomes, probe SN38 (0.5 µM), SN38 glucuronidation, read-out: maximum activation of SN38 glucuronidation) worked out at 607%. Also, in data set [3] (after MIC vaginal capsule alone), the Cmax (usually the highest concentration seen after dosing) was 7.61 ± 3.13 ng/mL. Moreover, the Emax at 45 min in data set [5] (human, recombinant UGT1A8, probe 4-methylumbelliferone (2 µM), glucuronidation) was 173%.

On to `Cc1cc(C)c(Nc2ccnc(Nc3ccc(C#N)cc3)n2)c(C)c1` [DPV, Dapivirine], for which the IC50 in data set [6] is 10.1 µM; in data set [1] (read-out: IC50), 5.2 µM; in data set [2], 19.6 µM; in data set [8] it was 17.2 µM; in data set [4], 9.45 µM; in data set [5], above 30 µM. In data set [3] (concomitant use of DPV ring and MIC vaginal capsule compared to DPV ring alone), the “increase in systemic exposure to DPV” value is given as 20%. Besides, the Cmax in data set [3] (after DPV ring administration alone) was 0.462 ± 0.288 ng/mL. Further, the “CYP1A2 mRNA change” value in data set [7] is recorded as “induction in one donor”.
